pIC50: −log10 of the molar value.
What was measured:
CDK3 = CDK3 (Homo sapiens, UniProt Q00526); test: CDK3 kinase inhibition (Table B); format: biochemical
CDK1 = CDK1 (Homo sapiens, UniProt P06493); test: CDK1 kinase inhibition (Table B); format: biochemical
CDK2/cyclinA = target: T1, CDK2/cyclinA (Homo sapiens, UniProt P24941); test: CDK2 kinase assay (33P-ATP, Histone H1 substrate); format: biochemical; settings: 1 μM ATP, 5 μM Histon H1, 2 hours at room temperature
T1 construct: C-terminal 6His-tagged human full length cdk2 (MW=35 kDa); 6His (C); made in house; host or cells: Sf21 insect cells (baculovirus)
Excerpt: CDK2/cyclinA (Accession number for CDK2; EMBL M68520, for cyclin A; EMBL X51688): C-terminal 6His-tagged human full length cdk2 (MW=35 kDa), and N-terminal GST-tagged human full length cyclin A (MW=75 kDa) were expressed individually with baculovirus system in Sf21 insect cells. Recombinant cdk2 protein was purified with Ni2+/NTA agarose and then activated using CAK and repurified by Q Sepharose and Ni2+/NTA agarose. Recombinant cyclin A was purified using glutathione-agarose. They were then mixed in vitro to form protein complex. Recombinant protein complex was measured to be 67% in purity with SDS-PAGE and Coomassie blue staining. Specific activity of purified enzyme was measured to be 158 U/mg, where one unit of cdk2/cyclinA activity is defined as 1 nmol phosphate incorporated into 0.1 mg/ml histone H1 per minute at 30° C. with a final ATP concentration of […]. Enzyme was stored at a concentration of 0.1 mg/ml in 50 mM Tris/HCl pH7.5, 150 mM NaCl, 0.1 mM EGTA, 0.03% Brij-35, 270 mM sucrose, 1 mM benzamidine, 0.2 mM PMSF, 0.1% 2-mercaptoethanol. Frozen solution.
Histon H1 (Substrate for CDK2): Histone H1 (Sigma cat#H4524), was purified as a lysine rich fraction from calf thymus with 93% purity (MW=21.5 kDa). Purified protein was stored at a concentration of 20 mg/ml=930 μM in distilled water.
[…] (0.5 nmol) and 5 μM Histon H1 were mixed in the reaction buffer (20 mM HEPES (pH 7.5), 10 mM MgCl2, 1 mM EGTA, 0.02% Brij 35, 0.02 mg/ml BSA, 0.1 mM Na3VO4, 2 mM DTT) with final concentration of 1 μM ATP and 1% DMSO. The reaction was incubated for 2 hours at room temperature and conversion rate of ATP is about 4.5%. An equal volume of 25% TCA was added to stop the reaction and precipitate the labeled peptides. Precipitated proteins were trapped onto glass fiber B filterplates and excess […] p33 ATP was washed off. The plates were allowed to air-dry prior to the addition of 30 uL/well of Packard Microscint 20. The amount of incorporated isotope was measured using a Perkin Elmer TopCount plate reader. Different concentrations of compounds were added to reaction to assess the activity of compounds to inhibit […]. IC50 was calculated using Prism software with sigmoidal dose-response curve fitting.
The following TABLE B lists compounds representative of the invention and their activity in the CDK2 assay. In this assay, the following grading was used: I≧10 μM, 10 μM>II>1 μM, 1 μM>III>0.1 μM, and IV≦0.1 μM for IC50.

CDK4 = CDK4 (Homo sapiens, UniProt P11802); test: CDK4 kinase inhibition (Table B); format: biochemical
CDK9 = CDK9 (Homo sapiens, UniProt P50750); test: CDK9 kinase inhibition (Table B); format: biochemical
CDK9, sequence (P50750 whole entry): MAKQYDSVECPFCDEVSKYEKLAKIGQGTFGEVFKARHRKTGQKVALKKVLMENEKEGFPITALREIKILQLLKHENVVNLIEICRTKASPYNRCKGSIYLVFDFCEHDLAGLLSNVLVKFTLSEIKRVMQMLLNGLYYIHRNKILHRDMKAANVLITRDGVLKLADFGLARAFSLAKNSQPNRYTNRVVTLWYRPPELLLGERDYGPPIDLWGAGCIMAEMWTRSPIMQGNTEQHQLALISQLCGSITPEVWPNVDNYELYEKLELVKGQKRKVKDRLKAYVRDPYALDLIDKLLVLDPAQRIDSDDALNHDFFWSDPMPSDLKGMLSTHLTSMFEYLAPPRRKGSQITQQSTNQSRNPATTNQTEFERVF
CDK9, sequence (O60563 whole entry partner): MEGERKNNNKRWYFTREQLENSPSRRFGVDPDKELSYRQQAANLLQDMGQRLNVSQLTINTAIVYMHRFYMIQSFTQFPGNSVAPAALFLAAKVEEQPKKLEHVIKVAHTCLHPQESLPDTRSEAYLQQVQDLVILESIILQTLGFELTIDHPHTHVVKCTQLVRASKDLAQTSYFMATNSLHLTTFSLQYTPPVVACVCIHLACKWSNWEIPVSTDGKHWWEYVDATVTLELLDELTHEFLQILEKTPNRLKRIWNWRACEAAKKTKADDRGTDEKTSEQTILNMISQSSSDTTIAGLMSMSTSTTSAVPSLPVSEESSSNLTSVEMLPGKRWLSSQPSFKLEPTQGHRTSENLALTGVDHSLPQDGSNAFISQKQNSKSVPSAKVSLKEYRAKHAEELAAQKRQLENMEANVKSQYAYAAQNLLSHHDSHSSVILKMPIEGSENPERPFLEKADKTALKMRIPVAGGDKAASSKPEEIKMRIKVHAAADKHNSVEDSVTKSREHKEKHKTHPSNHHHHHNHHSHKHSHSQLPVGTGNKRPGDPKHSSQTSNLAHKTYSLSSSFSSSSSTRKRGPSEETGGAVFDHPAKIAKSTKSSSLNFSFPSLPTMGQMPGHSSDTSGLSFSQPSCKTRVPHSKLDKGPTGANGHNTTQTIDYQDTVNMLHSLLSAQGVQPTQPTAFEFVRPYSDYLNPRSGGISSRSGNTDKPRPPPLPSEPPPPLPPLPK

CDK1, sequence (P06493 whole entry): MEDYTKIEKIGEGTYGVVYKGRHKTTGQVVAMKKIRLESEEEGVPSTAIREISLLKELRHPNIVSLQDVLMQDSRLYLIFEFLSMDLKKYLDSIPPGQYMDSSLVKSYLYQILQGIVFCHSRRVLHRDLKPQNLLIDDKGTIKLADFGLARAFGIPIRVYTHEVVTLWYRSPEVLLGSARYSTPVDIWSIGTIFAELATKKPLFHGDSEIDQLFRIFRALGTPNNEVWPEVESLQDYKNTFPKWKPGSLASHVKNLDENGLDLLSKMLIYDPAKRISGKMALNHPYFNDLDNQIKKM
CDK1, sequence (P14635 whole entry partner): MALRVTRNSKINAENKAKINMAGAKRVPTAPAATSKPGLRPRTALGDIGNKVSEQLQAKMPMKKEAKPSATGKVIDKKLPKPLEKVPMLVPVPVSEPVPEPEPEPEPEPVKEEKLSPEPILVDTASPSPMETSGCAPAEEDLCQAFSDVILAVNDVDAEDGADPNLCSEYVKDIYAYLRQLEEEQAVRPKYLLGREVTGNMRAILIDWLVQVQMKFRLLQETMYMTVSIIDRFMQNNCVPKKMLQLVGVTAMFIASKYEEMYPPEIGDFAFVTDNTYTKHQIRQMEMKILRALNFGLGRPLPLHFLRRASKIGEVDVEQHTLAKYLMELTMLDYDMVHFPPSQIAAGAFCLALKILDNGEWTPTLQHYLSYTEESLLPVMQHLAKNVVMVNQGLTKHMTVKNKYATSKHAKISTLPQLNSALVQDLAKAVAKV
CDK3, sequence (Q00526 whole entry): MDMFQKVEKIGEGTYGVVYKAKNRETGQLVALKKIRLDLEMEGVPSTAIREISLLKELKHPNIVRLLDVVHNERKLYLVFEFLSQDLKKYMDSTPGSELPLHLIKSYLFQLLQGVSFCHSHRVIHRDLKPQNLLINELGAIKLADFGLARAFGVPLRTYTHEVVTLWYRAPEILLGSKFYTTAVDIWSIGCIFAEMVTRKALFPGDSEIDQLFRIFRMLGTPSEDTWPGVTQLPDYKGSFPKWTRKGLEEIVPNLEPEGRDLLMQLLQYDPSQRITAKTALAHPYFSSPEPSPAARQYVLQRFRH
CDK3, sequence (P24864 whole entry partner): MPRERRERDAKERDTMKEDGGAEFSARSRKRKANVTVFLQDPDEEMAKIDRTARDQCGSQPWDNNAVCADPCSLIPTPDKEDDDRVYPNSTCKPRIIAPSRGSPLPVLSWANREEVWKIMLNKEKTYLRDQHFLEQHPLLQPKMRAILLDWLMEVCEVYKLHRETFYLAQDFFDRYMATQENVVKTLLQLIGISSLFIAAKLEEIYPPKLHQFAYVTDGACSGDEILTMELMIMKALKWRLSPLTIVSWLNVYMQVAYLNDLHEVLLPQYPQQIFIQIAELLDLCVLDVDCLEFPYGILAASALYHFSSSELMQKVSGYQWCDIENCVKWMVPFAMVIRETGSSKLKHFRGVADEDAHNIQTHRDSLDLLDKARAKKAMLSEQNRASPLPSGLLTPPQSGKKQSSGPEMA
CDK4, sequence (P11802 whole entry): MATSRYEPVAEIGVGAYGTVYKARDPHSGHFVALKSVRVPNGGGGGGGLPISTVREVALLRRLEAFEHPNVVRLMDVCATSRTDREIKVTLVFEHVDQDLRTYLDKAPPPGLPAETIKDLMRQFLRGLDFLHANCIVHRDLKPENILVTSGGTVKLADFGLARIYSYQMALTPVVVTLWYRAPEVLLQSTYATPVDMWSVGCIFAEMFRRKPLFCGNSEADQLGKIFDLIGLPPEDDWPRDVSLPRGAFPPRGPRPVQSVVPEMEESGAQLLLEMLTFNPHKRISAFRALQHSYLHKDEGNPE
CDK4, sequence (P24385 whole entry partner): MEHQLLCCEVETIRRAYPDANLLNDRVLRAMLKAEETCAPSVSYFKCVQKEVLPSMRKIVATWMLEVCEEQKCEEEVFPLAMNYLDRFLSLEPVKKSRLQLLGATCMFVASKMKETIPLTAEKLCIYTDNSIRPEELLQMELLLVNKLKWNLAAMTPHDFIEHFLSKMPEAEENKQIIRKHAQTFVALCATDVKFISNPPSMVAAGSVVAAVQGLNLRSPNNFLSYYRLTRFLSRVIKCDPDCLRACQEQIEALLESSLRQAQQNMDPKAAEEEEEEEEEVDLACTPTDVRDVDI

SMILES | pIC50 (CDK2/cyclinA) | further results
CC(C)N(O)C(=O)CCCCCCC(=O)Nc1ncc(SCc2ncc(C(C)(C)C)o2)s1 [Compound 5, N^1-(5-((5-tert-butyloxazol-2-yl)methylthio)thiazol-2-yl)-N^8-hydroxy-N^8-isopropyloctanediamide] | ≥ 7.00 | pIC50 (CDK3): ≥ 7.00; pIC50 (CDK1): ≥ 7.00; pIC50 (CDK4): 6.00 to 7.00; pIC50 (CDK9): ≥ 7.00
CC(C)(C)c1cnc(CSc2cnc(NC(=O)CCCCCCC(=O)Nc3ccccc3N)s2)o1 [Compound 18, N^1-(2-aminophenyl)-N^8-(5-((5-tert-butyloxazol-2-yl)methylthio)thiazol-2-yl)octanediamide] | ≥ 7.00 | pIC50 (CDK3): ≥ 7.00; pIC50 (CDK1): ≥ 7.00; pIC50 (CDK4): 6.00 to 7.00; pIC50 (CDK9): ≥ 7.00
CC(C)(C)c1cnc(CSc2cnc(NC(=O)CCCCCCC(=O)Nc3cc(C(F)(F)F)ccc3N)s2)o1 [Compound 24, N^1-(2-amino-5-(trifluoromethyl)phenyl)-N^8-(5-((5-tert-butyloxazol-2-yl)methylthio)thiazol-2-yl)octanediamide] | ≥ 7.00 | melting point: 77 to 82 °C
CC(C)(C)c1cnc(CSc2cnc(NC(=O)CCCCCCC(=O)Nc3ccc(C(F)(F)F)cc3N)s2)o1 [Compound 25, N^1-(2-amino-4-(trifluoromethyl)phenyl)-N^8-(5-((5-tert-butyloxazol-2-yl)methylthio)thiazol-2-yl)octanediamide] | ≥ 7.00 | melting point: 114 to 116 °C
CN(O)C(=O)/C=C/c1ccc(C(=O)Nc2ncc(SCc3ncc(C(C)(C)C)o3)s2)cc1 [Compound 39, (E)-N-(5-((5-tert-butyloxazol-2-yl)methylthio)thiazol-2-yl)-4-(3-(hydroxy(methyl)amino)-3-oxoprop-1-enyl)benzamide] | 5.00 to 6.00 | –
CC(C)(C)c1cnc(CSc2cnc(NC(=O)CCCCCCC(=O)n3nnc4ccccc43)s2)o1 [Compound 40, 8-(1H-benzo[d][1,2,3]triazol-1-yl)-N-(5-((5-tert-butyloxazol-2-yl)methylthio)thiazol-2-yl)-8-oxooctanamide] | ≥ 7.00 | –
CC(C)(C)c1cnc(CSc2cnc(NC(=O)CCCCCCC(=O)Nc3n[nH]c4ccccc34)s2)o1 [Compound 41] | ≥ 7.00 | –
CC(C)(C)c1cnc(CSc2cnc(NC(=O)CCCCCCC(=O)Nc3cn[nH]c3)s2)o1 [Compound 42, N^1-(5-((5-tert-butyloxazol-2-yl)methylthio)thiazol-2-yl)-N^8-(1H-pyrazol-4-yl)octanediamide] | ≥ 7.00 | –
CC(C)(C)c1cnc(CSc2cnc(NC(=O)CCCCCCC(=O)n3ncc(-c4ccc(F)cc4)c3N)s2)o1 [Compound 44, 8-(5-amino-4-(4-fluorophenyl)-1H-pyrazol-1-yl)-N-(5-((5-tert-butyloxazol-2-yl)methylthio)thiazol-2-yl)-8-oxooctanamide] | ≥ 7.00 | –
CC(C)(C)c1cnc(CSc2cnc(NC(=O)CCCCCCC(=O)Nc3[nH]ncc3-c3ccc(F)cc3)s2)o1 [Compound 45] | ≥ 7.00 | –
CC(C)(C)c1cnc(CSc2cnc(NC(=O)CC3Nc4ccccc4NC3=O)s2)o1 (stereo not shown) [Compound 46, N-(5-((5-tert-butyloxazol-2-yl)methylthio)thiazol-2-yl)-2-(3-oxo-1,2,3,4-tetrahydroquinoxalin-2-yl)acetamide] | ≥ 7.00 | –
CC(C)(C)c1cnc(CSc2cnc(NC(=O)CCCCCCC(=O)Nc3nc4ccccc4[nH]3)s2)o1 [Compound 47] | ≥ 7.00 | –
CC(C)(C)c1cnc(CSc2cnc(NC(=O)CCCCCCC(=O)n3nc(N)c4ccccc43)s2)o1 [Compound 48] | ≥ 7.00 | –
CC(C)(C)c1cnc(CSc2cnc(NC(=O)CCCCCCC(=O)Nc3c[nH]c4ccccc34)s2)o1 [Compound 50] | ≥ 7.00 | –
CN1OC(=O)CC1c1ccc(C(=O)Nc2ncc(SCc3ncc(C(C)(C)C)o3)s2)cc1 (stereo not shown) [Compound 51, N-(5-((5-tert-butyloxazol-2-yl)methylthio)thiazol-2-yl)-4-(2-methyl-5-oxoisoxazolidin-3-yl)benzamide] | ≥ 7.00 | –
CC(C)(C)c1cnc(CSc2cnc(NC(=O)CCCCCCC(=O)Nc3cc(-c4cccs4)n[nH]3)s2)o1 [Compound 52] | ≥ 7.00 | –
CC(C)(C)c1cnc(CSc2cnc(NC(=O)Oc3ccc(OCCCC(=O)Nc4ccccc4N)cc3)s2)o1 [Compound 54, 4-(4-(2-Aminophenylamino)-4-oxobutoxy)phenyl 5-((5-tert-butyloxazol-2-yl)methylthio)thiazol-2-ylcarbamate] | ≥ 7.00 | –
CC(C)(C)c1cnc(CSc2cnc(NC(=O)Cc3cccc(OCCCC(=O)Nc4ccccc4N)c3)s2)o1 [Compound 56, N-(2-aminophenyl)-4-(3-(2-(5-((5-tert-butyloxazol-2-yl)methylthio)thiazol-2-ylamino)-2-oxoethyl)phenoxy)butanamide] | ≥ 7.00 | –
CC(C(=O)Nc1ncc(SCc2ncc(C(C)(C)C)o2)s1)c1ccc(OCCCC(=O)Nc2ccccc2N)cc1 (stereo not shown) [Compound 57, N-(2-aminophenyl)-4-(4-(1-(5-((5-tert-butyloxazol-2-yl)methylthio)thiazol-2-ylamino)-1-oxopropan-2-yl)phenoxy)butanamide] | ≥ 7.00 | –
CC(Sc1cnc(NC(=O)Cc2ccc(OCCCC(=O)Nc3ccccc3N)cc2)s1)c1ncc(C(C)(C)C)o1 (stereo not shown) [Compound 58, N-(2-aminophenyl)-4-(4-(2-(5-(1-(5-tert-butyloxazol-2-yl)ethylthio)thiazol-2-ylamino)-2-oxoethyl)phenoxy)butanamide] | ≥ 7.00 | –
CC(C)(C)c1cnc(CSc2cnc(NC(=O)Cc3ccc(OCCCC(=O)Nc4ccc(F)cc4N)cc3)s2)o1 [Compound 59, N-(2-amino-4-fluorophenyl)-4-(4-(2-(5-((5-tert-butyloxazol-2-yl)methylthio)thiazol-2-ylamino)-2-oxoethyl)phenoxy)butanamide] | ≥ 7.00 | –
CC(C)(C)c1cnc(CSc2cnc(NC(=O)Cc3ccc(OCCCC(=O)Nc4cc(F)ccc4N)cc3)s2)o1 [Compound 60, N-(2-amino-5-fluorophenyl)-4-(4-(2-(5-((5-tert-butyloxazol-2-yl)methylthio)thiazol-2-ylamino)-2-oxoethyl)phenoxy)butanamide] | ≥ 7.00 | –
CC(C)(C)c1cnc(CSc2cnc(NC(=O)Cc3ccc(OCCCC(=O)Nc4ccccc4)cc3)s2)o1 [Compound 61, 4-(4-(2-(5-((5-tert-butyloxazol-2-yl)methylthio)thiazol-2-ylamino)-2-oxoethyl)phenoxy)-N-phenylbutanamide] | ≥ 7.00 | –
CC(C)(C)c1cnc(CSc2cnc(NC(=O)Cc3ccc(OCCCC(=O)Nc4ccncc4)cc3)s2)o1 [Compound 62, 4-(4-(2-(5-((5-tert-butyloxazol-2-yl)methylthio)thiazol-2-ylamino)-2-oxoethyl)phenoxy)-N-(pyridin-4-yl)butanamide] | ≥ 7.00 | –
CC(C)(C)c1cnc(CSc2cnc(NC(=O)Cc3ccc(OCCCC(=O)Nc4cccnc4)cc3)s2)o1 [Compound 63, 4-(4-(2-(5-((5-tert-butyloxazol-2-yl)methylthio)thiazol-2-ylamino)-2-oxoethyl)phenoxy)-N-(pyridin-3-yl)butanamide] | ≥ 7.00 | –
CC(C)(C)c1cnc(CSc2cnc(NC(=O)Cc3ccc(OCCCC(=O)Nc4ccccn4)cc3)s2)o1 [Compound 64, 4-(4-(2-(5-((5-tert-butyloxazol-2-yl)methylthio)thiazol-2-ylamino)-2-oxoethyl)phenoxy)-N-(pyridin-2-yl)butanamide] | ≥ 7.00 | melting point: 126 to 129 °C
